Tests used:
[1] = Thermal denaturation temperature (Td) of fixed pericardium by DSC; type: physicochemical, bovine; details: for Td after 24 hours / Td after 44 hours: bovine pericardium, +/− SEM, n = 6; for Td after 24 hours: fixation 24 hours; for Td after 44 hours: fixation 44 hours
Method: Collagen rich tissue was used as a model to test the possible interference of TA with GA-mediated fixation. Samples of bovine pericardium (tissue including about 85% collagen and 5-10% elastin) was fixed at room temperature in one of either: 1% TA in phosphate buffered saline at pH 7.4 for 24 and 44 hours (TA); 0.5% GA in phosphate buffered saline at pH 7.4 for 24 and 44 hours (GA); 0.5% GA in phosphate buffered saline at pH 7.4 for 60 minutes followed by 1% TA in phosphate buffered saline at pH 7.4 for 24 and 44 hours (GA/TA); or 1% TA in phosphate buffered saline at pH 7.4 for 60 minutes followed by 0.5% GA in phosphate buffered saline at pH 7.4 for 24 and 44 hours (TA/GA). After fixation, tissues were washed in normal saline and the extent of cross-linking was evaluated by analysis of the thermal denaturation temperature (Td). Td reflects that the temperature at which native collagen molecules unravel (around 65° C.) is increased in chemically cross-linked tissues. […]. In the case of connective tissues, Td represents the temperature at which native collagen molecules unravel. This process leads to protein denaturation and is recorded as a peak maximum (FIG. 1). […] Tissues (native, GA fixed, TA fixed, and GA/TA combination fixed, as described above) were rinsed in saline and 2 mm^2 samples were cut and hermetically sealed in Differential Scanning Calorimetry (DSC) aluminum pans. Samples were heated at a rate of 10° C./min, from 25° C. to 110° C. and the temperature of thermal denaturation (Td) for each sample was recorded on a Perkin Elmer DSC 7 machine.

[2] = Mass loss of fixed aortic wall after elastase digestion; design: species or system Porcine; details: for % Mass Loss: porcine aortic wall fixed 7 days, 8.5 Units pancreatic elastase, 2 days, 37° C.; for increase in resistance to elastase of aorta: versus fresh aortic wall (60% mass loss in 2 days)
Method: Porcine aorta fragments were collected from a local slaughterhouse and placed in ice-cold saline. The aorta fragments were fixed separately with GA, TA, and a combination of GA and TA as described below. Following fixation, the samples were treated with high concentrations of elastase to test resistance to enzymatic degradation.
(§1) Porcine aortic conduits were fixed for 7 days at room temperature in either:
0.6% GA in 50 mM Hepes buffered saline at pH 7.4 (GA);
0.3% TA in 50 mM Hepes buffered saline at pH 7.4 (TA); or
A mixture of 0.6% GA and 0.3% TA in 50 mM Hepes buffered saline at pH 7.4 (GA & TA).
After fixation, tissues were washed in normal saline followed by ddH2O and fragments of 4×4 mm were dissected and lyophilized. Tissue fragments from each group were weighed and incubated for 2 days (about 48 hours) at 37° C. with 8.5 Units of pancreatic elastase in elastase buffer (50 mM Tris, 1 mM CaCl2, 0.02% NaN3, pH 7.8). As positive controls, fresh, untreated tissues exposed to elastase solution were used. Tissue fragments were thoroughly rinsed in ddH2O, lyophilized and weighed. Mass loss due to enzyme digestion was calculated from the difference between tissue weight before and after incubation in elastase. Lower values of Mass Loss, set forth in Table 2 and FIG. 3, are indicative of better tissue preservation and improved putative protection of elastin from enzymatic degradation.

[3] = Calcification of fixed aorta after subdermal implantation in juvenile rats; type: in vivo, Sprague-Dawley rats; details: porcine aorta, subdermal implant in juvenile rats, +/− SEM, n = 10
Method: Porcine aorta fragments were collected from a local slaughterhouse and placed in ice-cold saline. The aorta fragments were fixed with GA and separately with a combination of GA and TA as described below. Following fixation, samples were implanted subdermally in juvenile rats to test for calcification potential.
as §1
0.6% GA in 50 mM Hepes buffered saline at pH 7.4 (GA); or
a mixture of 0.6% GA and 0.3% TA in 50 mM Hepes buffered saline at pH 7.4 (GA & TA).
After fixation, tissues were washed in normal saline and fragments of 4×4 mm were tested for calcification by subdermal implantation in juvenile rats (the process used is described in detail by Bailey M, Xiao H, Ogle M, Vyavahare N., ‘Aluminum chloride pretreatment of elastin inhibits elastolysis by matrix metalloproteinases and leads to inhibition of elastin-oriented calcification,’ The American Journal of Pathology, 2001;159(6):1981-6, which is herein incorporated by reference). […]
At 7 and 21 days after implantation, rats were humanely euthanized, tissue samples explanted from their subdermal pouches, dried and analyzed for calcium content using atomic absorbtion spectrophotometry (as outlined in publication above). […]

[4] = tested on: pure elastin; assay: Degradation of orcein-labeled pure elastin by elastase; type: biochemical; details: versus buffer control elastin, completely degraded
Method: Pure elastin labeled with orcein was used as a substrate for the enzyme elastase. The labeled elastin substrate was used per se, as well as labeled elastin fixed separately with glutaraldehyde (GA) and with tannic acid (TA).
Purified insoluble elastin labeled with orcein was treated for 24 hours at room temperature with one of:
0.6% GA in 50 mM Hepes buffered saline at pH 7.4 (GA-fixed elastin);
0.3% TA in 50 mM Hepes buffered saline at pH 7.4 (TA-fixed elastin); or
50 mM Hepes buffered saline at pH 7.4 (Buffer control).
Elastin samples were centrifuged at 3000 rpm for 10 minutes at room temperature, rinsed with double distilled (dd)H2O and dialyzed in ddH2O. Treated elastin was suspended in elastase buffer (50 mM Tris, 1 mM CaCl2, 0.02% NaN3, pH 7.8) at a concentration of 20 mg/ml. A blank of labeled elastin incubated in the absence of elastase was also prepared for comparison.
Pure pancreatic elastase was prepared at a concentration of 1 Unit/ml in elastase buffer (described above), mixed with treated elastin samples in a 1 to 1 ratio and incubated at 37° C. for 3 days. Samples were centrifuged and elastin degradation was assessed by measuring the presence of soluble orcein-labeled elastin peptides in supernatants, by measuring optical density at 570 nm.

SMILES | Td after 24 hours [1] | Td after 44 hours [1] | % Mass Loss [2] [%] | increase in resistance to elastase of aorta [2] | Calcium content after 7 days ([3]; 7 days) | Calcium content after 21 days ([3]; 21 days) | reduction of elastin degradation by elastase [4] [%] | Td ([1]; pericardium, DSC 10° C./min, FIG. 1, fresh around 65° C.) [°C]
O=C(OC[C@H]1O[C@@H](OC(=O)c2cc(O)c(O)c(OC(=O)c3cc(O)c(O)c(O)c3)c2)[C@H](OC(=O)c2cc(O)c(O)c(OC(=O)c3cc(O)c(O)c(O)c3)c2)[C@@H](OC(=O)c2cc(O)c(O)c(OC(=O)c3cc(O)c(O)c(O)c3)c2)[C@@H]1OC(=O)c1cc(O)c(O)c(OC(=O)c2cc(O)c(O)c(O)c2)c1)c1cc(O)c(O)c(OC(=O)c2cc(O)c(O)c(O)c2)c1 [TA, tannic acid] | 68.4 +/− 1.4 °C | 72.6 +/− 0.9 °C | 41.56 | about 20% |  |  |  | 
O=CCCCC=O [GA, glutaraldehyde] | 84.5 +/− 0.7 °C | 85.1 +/− 1.1 °C | 39.33 | about 20% | 15.31 +/− 1.54 μg Ca/mg dry | 42.18 +/− 2.21 μg Ca/mg dry | 6.7 | 87
